This data set in a line: Effect of polymer embedding on components of DMEM F12 medium (embedded vs non-embedded form).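 Note: qualitative label per medium component: Hygros denotes lower hygroscopicity of the embedded form versus the free form, NA denotes not applicable.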 The data set is classed as physicochemical. As to conditions: component of DMEM F12 medium embedded in polymer, compared to the non-embedded form.

Where a name gives a salt, the structure may show the parent alone.

From the text: For all components the effect of polymer embedding is shown.
In Table 1, “Hygros” means that if the component is embedded according to the present invention and used in the media composition in its embedded form, the ability of said substance to attract and hold water molecules from the surrounding environment is reduced compared to the non-embedded form.

`N[C@@H](Cc1c[nH]c2ccccc12)C(=O)O` [L-Thryptophan]: the embedding effect entry was “Solu”. For `O.O.O.O.O.O.O.O=S(=O)([O-])[O-].[Zn+2]` [Zinc sulafte 7H2O] the value was “Solu”; for `NC(=O)c1cccnc1` [Niacinamide], “Stab”; for `N[C@@H](CO)C(=O)O` [L-Serine], “Solu”. As to `CC[C@H](C)[C@H](N)C(=O)O` [L-Isoleucine], the embedding effect result was “Solu”. In the case of `Cl.NCCCC[C@H](N)C(=O)O` [L-Lysine hydrochloride], the embedding effect result was “Solu”. For `CSCC[C@H](N)C(=O)O` [L-Methionine] the value was “Solu”. For `NC(=O)CC[C@H](N)C(=O)O` [L-Glutamine] the value was “Stab”; for `Cl.N[C@@H](Cc1cnc[nH]1)C(=O)O.O` [L-Histidine HCl H2O], “Solu”; for `CC(=O)C(=O)[O-].[Na+]` [Sodium pyruvate], “Stab”.

With `CCCCC/C=C\C/C=C\CCCCCCCC(=O)O` [Linoleic acid], the embedding effect entry is reported as “Oxid”. Regarding `O.O.O.O.O.O.O.O=S(=O)([O-])[O-].[Fe+2]` [Ferrous sulfate 7H2O], the embedding effect result is given as “Solu”.

In the case of `O=C(O)CCCC[C@@H]1SC[C@@H]2NC(=O)N[C@@H]21` [Biotin], the embedding effect entry was “Stab”. With `C[C@H](N)C(=O)O` [L-Alanine], the embedding effect entry is given as “Solu”. For `O.O.O.O.O.O.O.O.O.O=[N+]([O-])[O-].O=[N+]([O-])[O-].O=[N+]([O-])[O-].[Fe+3]` [Ferric nitrate 9H2O], the embedding effect entry is recorded as “Solu”. Regarding `Cc1cc2nc3c(=O)[nH]c(=O)nc-3n(C[C@H](O)[C@H](O)[C@H](O)CO)c2cc1C` [Riboflavin], the embedding effect result was “Stab”.

With `C[C@@H](O)[C@H](N)C(=O)O` [L-Threonine], the embedding effect entry was “Solu”.

For the compound `Cc1ncc(C[n+]2csc(CCO)c2C)c(N)n1` [Thiamine HCl], the embedding effect result is listed as “Stab”.

Take `N[C@@H](Cc1ccccc1)C(=O)O` [L-Phenylalanine]: the embedding effect entry is on record as “Solu”. `O=C(O)CCCCC1CCSS1` (racemic) [DL-alpha-lipoic acid]: the embedding effect result is “Oxid”. For `CC(C)C[C@H](N)C(=O)O` [L-Leucine], the embedding effect entry is “Solu”. As to `C[N+](C)(C)CCO.[Cl-]` [Choline chloride], the embedding effect entry is “Hygros”. Next, Vitamin B12: “Solu”; `NC(=O)C[C@H](N)C(=O)O.O` [L-Asparagine H2O]: “Solu”; `N[C@@H](Cc1ccc([O-])cc1)C(=O)[O-].O.O.[Na+].[Na+]` [L-Tyrosine 2Na]: “Solu”. With `Nc1nc2ncc(CNc3ccc(C(=O)N[C@@H](CCC(=O)O)C(=O)O)cc3)nc2c(=O)[nH]1` [Folic acid], the embedding effect result is “Stab”. Next, `O.O.O.O.O.O=S(=O)([O-])[O-].[Cu+2]` [Copper sulfate 5H2O]: “Solu”; `CC(C)[C@H](N)C(=O)O` [L-Valine]: “Solu”; `Cc1ncc(CO)c(CO)c1O.Cl` [Pyridoxine HCl]: “Stab”. As for `Cl.N[C@@H](CS)C(=O)O.O` [L-Cysteine hydrochloride H2O], the embedding effect result is recorded as “Solu”. For `Cl.Cl.N[C@@H](CSSC[C@H](N)C(=O)O)C(=O)O` [L-Cystine 2HCl (mikronisiert), L-Cystine 2HCl (mikronisiert) aus 200635] the value was “Solu”; for `Cl.Cl.NCCCCN` [Putrescine 2HCl], “Stab”.
